Measured values: patent US20130331331A1, “HEXAPEPTIDE WITH IMPROVED ACTIVITY IN THE REPAIR OF CELLULAR DNA OF DERMAL CELLS” (priority 2011, published 2013)
Non-standard residues stand in square brackets, D forms with d. Nle = CCCC[C@H](N)C(=O)O

Legend:
Assay type in all cases: cell-based, human
[1] = system: melanocytes strain 1505b; experiment: cAMP levels, radioimmunoassay, strain 1505b; conditions: 1 nM, 45 min, 0.1 mM IBMX
Protocol: Dose-response experiments were carried out on three melanocytic strains, namely strains 1513c, 1505b and 105c melanocytes were treated with 1 pM-10 nM CUV9900 or NDP-MSH, or with 0.1-10 nM MSH for 45 minutes in the presence of 0.1 mM isobutyl methylxanthine (IBMX). The results obtained from strain 1513c are shown in FIG. 3, the results obtained from strain 1505b are shown in FIG. 5a and the results obtained from strain 105c are shown in FIG. 5b. The strains 1505b and 1513c were obtained from the same human adult while the strain 105c was obtained from another human adult. Cyclic AMP is the second messenger for the melanocortin-1 receptor, and assessment is usually performed indicating cellular activity reflective of melanogenesis. Cyclic AMP levels were determined using ^125I-labeled radioimmunoassay kit (Perkin Elmer, Waltham, Mass.), in human melanocytes that were treated with 0 (control), 0.1-10.0 nM α-MSH, or 0.001-10 nM NDP-MSH or 0.001-10.0 nM CUV 9900 for […]. in the presence of 0.1 mM IBMX, a phosphodiesterase inhibitor to prevent cAMP degradation. Triplicate wells were included in each group, and duplicate samples from each well were assayed for cAMP levels. Each data point is the mean percent of control of 6 determinations/group±S.E.

[2] = system: melanocyte strain 102b; experiment: Tyrosinase activity dose-response, strain 102b; conditions: subnanomolar concentrations
Protocol: Cell numbers as well as tyrosinase activity were then determined. Tyrosinase activity was calculated first at activity/10^6 cells, and then as % of control. […] The conditioned medium from each dish was collected to be assayed for tyrosinase activity, and the cell numbers were determined using a Coulter Counter. Triplicate dishes were included in each group, and duplicate samples from each dish were assayed for tyrosinase activity.

[3] = system: melanocyte strain 1513c; experiment: Tyrosinase activity as a measure of stability / residual effect, strain 1513c
Protocol: (§1) To determine the residual effect of CUV9900, as compared to NDP-MSH and α-MSH, on tyrosinase activity, melanocytes were treated with either CUV9900 or NDP-MSH at the concentrations previously described for a total of 3 days. Tyrosinase activity was measured at the end of the 3 days of treatment, and 2 and 4 days after maintenance of the melanocytes in the complete absence of any treatment.
(§2) With continued reference to FIGS. 7, 8 and 9, to determine the stability of CUV9900 versus that of NDP-MSH and α-MSH, melanocytes were treated with 1 nM of each peptide, namely with CUV9900, NDP-MSH and α-MSH, for a total of 6 days, or with 1 nM peptides that were incubated for 5 hours at 37° C. prior to addition to the cultures, every other day, for a total of 6 days. Tyrosinase activity was measured at the end of treatment. In the experiments, cell number represents the mean percent of control of 3 determinations/group±SE, and tyrosinase activity data represent the mean percent of control of 6 determinations±S.E. It should be noted that for the sake of reproducibility the experiment of strain 1513c of FIG. 9 was performed once more 6 months later than the experiment of FIG. 7.
(§3) Melanocytes were treated for 3 days with the designated concentrations of CUV9900, NDP-MSH, or MSH, then maintained in absence of peptides for 4 days. Tyrosinase activity was determined 3 days after treatment.
Comparison of stability of CUV9900, NDP-MSH and MSH was compared in 1513c, as shown in FIG. 7; the strain was treated for 6 days with 1 nM CUV9900, NDP-MSH or MSH with fresh medium and peptide replenished every 2 days. Melanocytes were treated according to the same experiment protocol but each peptide was incubated for 5-7 hours at 37 degrees Celsius. […] The assessment of tyrosinase was statistically different from control, as determined by ANOVA (p=<0.05).
(§4) Tyrosinase activity as a measure of stability is shown in Tables 4 to 6 below, wherein Table 4 is based on data derived from FIG. 7, Table 5 is based on data derived from FIG. 9, and Table 6 is based on data derived from FIG. 8: […]

[4] = system: melanocyte strain 1505b; experiment: Tyrosinase activity as a measure of stability / residual effect, strain 1505b
Protocol: as §1, §2, §3, §4

[5] = system: melanocytic strain 1505b; experiment: UV-induced generation of hydrogen peroxide (luminol), strain 1505b; conditions: 1 nM
From the text: (§5) With reference to FIGS. 10 and 11, melanocytes were irradiated with a bank of FS 20 lamps, with 75% emission in the UVB, and 25% emission in the UVA spectra, with peak emission at 313 nm wavelength. Any emission of UVC rays from the UV source (FS 20 lamps) was blocked by Kodacel filter. Prior to irradiation, the culture medium was replaced by PBS, which was removed after UV exposure, and fresh medium added.
(§6) Melanocytes were irradiated with 105 mJ/cm^2 UV, and treated immediately while in PBS with 0, 1 nM α-MSH or 1 nM CUV9900. Generation of hydrogen peroxide, representative of reactive oxygen species (ROS), was determined by measuring the luminescence of luminol at 0, 30, and 45 min after UV exposure. Triplicate dishes were included in each group, and duplicate samples from each dish were used for measurement of hydrogen peroxide at each time point. Each data point represents the mean of 6 determinations/group±S.E.
(§7) In the melanocytic strain 1505b of FIG. 10 and melanocytic strain 103c of FIG. 11, hydrogen peroxide generation was assessed at 0, 30 and 45 minutes after UV irradiation.

[6] = system: melanocytic strain 103c; experiment: UV-induced generation of hydrogen peroxide (luminol), strain 103c; conditions: 1 nM, 105 mJ/cm^2 UV, 0, 30 and 45 minutes after irradiation
From the text: as §5, §6, §7

[7] = system: melanocyte strain 103c; experiment: UV-induced apoptosis by Annexin V staining, strain 103c; conditions: 1 nM, 4 days prior and 1 day following 105 mJ/cm^2 UV
Protocol: With reference to FIGS. 12 and 13, melanocytes were maintained for the duration of the experiment in medium lacking bovine pituitary extract (BPE) to determine the survival effect of α-MSH or its analogs in the absence of the anti-apoptotic effect of TPA. Melanocytes were treated with 0, 1 nM α-MSH, 1 μM Forskolin, or 1 nM NDP-MSH or CUV9900 for 4 days prior to, and 24 h after exposure to a dose of 105 mJ/cm^2 UV, then stained for Annexin Va staining. The data are represented as percent increase above control, with triplicate dishes included in each group.
Comparison of the effect of CUV9900, NDP-MSH and MSH on the UV-induced apoptosis were made in the melanocyte strains 103c and melanocyte strain 1513c of FIGS. 12 and 13, respectively. Both strains were treated with 1 nM CUV9900, NDP and MSH, respectively for 4 days prior and 1 day following irradiation. Floating as well as attached cells were harvested and stained for Annexin V, and analyzed by flow cytometry.

Ac-Nle-Glu His-D-Phe-Arg-Trp-NH2 (Ac-[Nle]EH[dF]RW-NH2; SMILES CCCC[C@H](NC(C)=O)C(=O)N[C@@H](CCC(=O)O)C(=O)N[C@@H](Cc1c[nH]cn1)C(=O)N[C@H](Cc1ccccc1)C(=O)N[C@@H](CCCNC(=N)N)C(=O)N[C@@H](Cc1c[nH]c2ccccc12)C(N)=O) [CUV9900, hexapeptide alpha-MSH analogue]
cAMP, potency comparison [1]: more potent than MSH | stimulation of tyrosinase activity, comparison [2]: greater stimulation of tyrosinase activity than NDP-MSH | tyrosinase activity, comparison in words ([3]; first experiment in strain 1513c (Table 4)): increased tyrosinase activity in comparison to Control and MSH, but marginally less than NDP-MSH | Tyrosinase activity, Mean ([3]; strain 1513c [1], 1 nM, mean of columns 1-3): 215.7 % of control | effect of incubating the peptide on its stimulation of tyrosinase activity ([3]; strain 1513c, 1 nM peptide incubated 5-7 hours at 37 degrees Celsius): no effect on its ability to stimulate tyrosinase activity | Tyrosinase activity, Mean [1 + 2] ([3]; strain 1513c, mean over experiments [1] and [2]): 284.2 % of control | superior tyrosinase activity in comparison to MSH [4]: 18.7% | superior tyrosinase activity in comparison to NDP-MSH [4]: 32.1% | residual effects on tyrosinase activity 4 days after peptide removal, CUV9900 vs MSH ([4]; 0.1 nM CUV9900 vs 1 nM MSH): equal | hydrogen peroxide generation, comparison ([5]; 45 minutes after irradiation): lower hydrogen peroxide generation in comparison with both NDP-MSH and MSH | UV-induced hydrogen peroxide generation ([5]; strain 1505b, 105 mJ/cm^2 UV, 0, 30 and 45 minutes after irradiation): significant reduction of UV-induced hydrogen peroxide generation | UV-induced hydrogen peroxide generation [6]: significant reduction of UV-induced hydrogen peroxide generation | anti-apoptotic effect (Annexin V), comparison [7]: equal anti-apoptotic effect than NDP-MSH
